Data from patent publication US7795226B2, “Control of radiation injury” (Biotempt B.V., priority 2006, dated 2010).

How the values were obtained:
[1] = tested on: renal ischemia reperfusion in mice; test: mouse renal ischemia reperfusion test; assay type: in vivo; parameters: BUN after 25 minutes renal ischemia, mean / Urea levels in dose-response experiment: unit not given here; conditions: for BUN concentration versus the PBS control group (in words) / mortality versus the PBS control group (in words) / BUN after 25 minutes renal ischemia, mean: 5 mg/kg i.v.; for mortality at 72 hours post-reperfusion: 5 mg/kg i.v. before and after 25 minutes clamping, dead/total
Experimental: Six oligopeptides (i.e., A: LAGV (SEQ ID NO:121); B: AQGV (SEQ ID NO:120); C: LAG; D: AQG; E: MTR; and F: MTRV (SEO ID NO:119)) were tested and compared with PBS (control) in a double blind animal study for each peptide's relative ability to aid recovery in a mouse renal ischemia reperfusion test. In this test, the mice were anesthetized, and one kidney from each mouse was removed. The other kidney was tied off for 25 minutes, and the serum urea levels were allowed to increase. Both before and after tying off, each of the separate peptides was administered to thirty (30) different mice (5 mg oligopeptide / kg body mass intravenously), after which, the mortality of the mice was determined for each oligopeptide as well as was the BUN concentration at two hours, 24 hours and 72 hours. The results are shown in Table 3 below (excluding the results of peptide A (LAGV (SEQ ID NO:121)) obtained in Example 3).
Under inhalation anesthesia, the left kidney with its artery and vein was isolated and occluded for 25 minutes using a microvascular clamp. During surgery, animals were placed on a heating pad to maintain body temperature at 37° C. Five minutes before placing the clamp, and five minutes before releasing the clamp, 5 mg/kg of peptide dissolved in 0.1 mL of sterile saline, was administered intravenously. After reperfusion of the left kidney, the right kidney was removed. Kidney function was assessed by measuring blood urea nitrogen before clamping, and at 2, 24, and 72 hours after reperfusion.
Peptides were tested at 0.3, 1, 3, 10 and 30 mg/kg dosages given as described in Example 3. P values (calculated by Mann Whitney U-test (SPSS for Windows)) of serum urea levels of PBS compared to peptide D groups at 72 hours post-clamping were at 0.3 mg/kg 0.001, at 1 mg/kg 0.009, at 3 mg/kg 0.02, at 10 mg/kg 0.000, and at 30 mg/kg 0.23; for peptide B (SEQ ID NO:120) groups, these P-values were 0.88, 0.054, 0.000, 0.001 and 0.003.

[2] = tested on: cell-cycle marker pCDG and auxin-responsive marker DR5::GUS; test: Arabidopsis thaliana seedling cell-cycle analysis (GUS markers); conditions: Results from Examples 9 and 10
Experimental: To further study anti-cell-cycle activity of various oligopeptides, a proliferation experiment in Arabidopsis Thaliana seedlings was performed. The aim was to test a group of 140 oligopeptides of varying length for their effect on plant marker gene expression during rapid growth when avid cell division occurs.
The peptides were re-suspended in 1× Phosphate Buffer Saline (PBS) pH 8 to a final concentration of 5 mg/ml. The obtained solutions were then divided through 96-well round bottom plates (Corning Incorporated) at 40 microliters per well. Plates were stored before use at […] for four days. Seeds of Arabidopsis thaliana ecotype Ws-0 were surface sterilized in 2% commercial bleach (Gloria) for ten minutes and washed five times with sterile MQ water. The seeds were then re-suspended with 0.1% agar and plated on MS20 plates supplemented with 80 mg/l Kanamycin.
The plates were placed at […] for two nights and then transferred to a climate room at […] and a 16/8 hours photoperiod. After four days of growth, the seedlings were transferred to 96-well plates containing the peptide solutions (four seedlings per well) and incubated for four and eight hours.
For this experiment, Arabidopsis homozygous seedlings harboring two reporter genes fused to GUS were used. […] After incubation with the compounds, the seedlings were stained for GUS. The staining reaction was performed in 100 mM sodium phosphate buffer (pH 7.0) that contained 10 mM EDTA, 10% DMSO, 0.1% Triton X-100, 2 mM X-Gluc, 0.5 mM K3Fe(CN)6 and 0.5 mM K4Fe(CN)6 at […] for 16 hours. […] Seedlings were fixed and cleared in chloral hydrate solution for detailed microscopic observation and photography under a microscope equipped with DIC optics.
Peptides were tested for an effect on marker gene expression on rapidly growing Arabidopsis young seedlings. This was monitored by changes on GUS distribution in different organs: root, root-hypocotyl transition zone and cotyledons.

[3] = tested on: high dose LPS (E. coli 026:B6)-induced septic shock in BALB/c mice; test: high dose LPS-induced septic shock, peptide administered twice; assay type: in vivo; conditions: peptide twice (t = 2 and 24 hours) 5 mg/kg
Experimental: Mice used in sepsis or septic shock experiments: Female BALB/c mice of eight to twelve weeks of age were used for all experiments. The animals were bred in our facility under specific pathogen-free conditions according to the protocols described in the […] of European Laboratory Animal Science Associations (FELASA) Working group on Animal Health (Laboratory Animals 28:1-24, 1994).
Injection protocols: For the endotoxin model, BALB/c mice were injected i.p. with 150-300 μg LPS (E. coli 026:B6; Difco Lab., Detroit, Mich., USA). Control groups were treated with PBS i.p. only. To test the effect of peptides, they were dissolved in PBS and injected i.p. at predetermined points in time after LPS treatment.
Mice were scored for sickness severity using the following measurement scheme: • 0 No abnormalities. • 1 Percolated fur, but no detectable behavior differences compared to normal mice. • 2 Percolated fur, huddle reflex, responds to stimuli (such as tap on cage), just as active during handling as healthy mouse. • 3 Slower response to tap on cage, passive or docile when handled, but still curious when alone in a new setting. • 4 Lack of curiosity, little or no response to stimuli, quite immobile. • 5 Labored breathing, inability or slow to self-right after being rolled onto back (moribund, sacrificed). • D Dead.
A second set of septic shock experiments were set up to determine which of the peptides LQG, LQGV (SEQ ID NO:117), VLPALP (SEQ ID NO:140), VLPALPQ (SEQ ID NO:143), MTR, MTRV (SEQ ID NO:119), VVC or AQG, AQGV (SEQ ID NO:120), LAG and LAGV (SEQ ID NO:121) were capable of inhibiting high dose LPS-induced septic shock in mice by treating mice with a double dose of peptide at two and 24 hours after LPS treatment. At each treatment, peptides were used at 5 mg/kg bodyweight. BALB/c mice were injected i.p. with high doses LPS (E. coli 026:B6; Difco Lab., Detroit, Mich. USA), predetermined to be leading to 80 to 100% mortality in 24 to 72 hours.

AQG
Mortality in dose-response experiment ([1]; 0.3 mg/kg, 24 hours): 0-10
Urea levels in dose-response experiment ([1]; 0.3 mg/kg, 24 hours): 38.4
Mortality in dose-response experiment ([1]; 0.3 mg/kg, 72 hours): 2-8
Urea levels in dose-response experiment ([1]; 0.3 mg/kg, 72 hours): 30.4
Mortality in dose-response experiment ([1]; 1.0 mg/kg, 24 hours): 0-10
Urea levels in dose-response experiment ([1]; 1.0 mg/kg, 24 hours): 48.4
Mortality in dose-response experiment ([1]; 1.0 mg/kg, 72 hours): 1-8
Urea levels in dose-response experiment ([1]; 1.0 mg/kg, 72 hours): 38.4
Mortality in dose-response experiment ([1]; 3.0 mg/kg, 24 hours): 0-10
Urea levels in dose-response experiment ([1]; 3.0 mg/kg, 24 hours): 39.3
Mortality in dose-response experiment ([1]; 3.0 mg/kg, 72 hours): 0-10
Urea levels in dose-response experiment ([1]; 3.0 mg/kg, 72 hours): 40.3
BUN concentration versus the PBS control group (in words) [1]: no reducing effect on BUN concentration
mortality versus the PBS control group (in words) [1]: significant reduction of mortality
mortality at 72 hours post-reperfusion [1]: 4/10
Mortality in dose-response experiment ([1]; 10.0 mg/kg, 24 hours): 0-8
Urea levels in dose-response experiment ([1]; 10.0 mg/kg, 24 hours): 46.8
Mortality in dose-response experiment ([1]; 10.0 mg/kg, 72 hours): 1-10
Urea levels in dose-response experiment ([1]; 10.0 mg/kg, 72 hours): 25.8
Mortality in dose-response experiment ([1]; 30.0 mg/kg, 24 hours): 0-8
Urea levels in dose-response experiment ([1]; 30.0 mg/kg, 24 hours): 52.8
Mortality in dose-response experiment ([1]; 30.0 mg/kg, 72 hours): 1-8
Urea levels in dose-response experiment ([1]; 30.0 mg/kg, 72 hours): 58.9
BUN after 25 minutes renal ischemia, mean ([1]; 2 hours after reperfusion): 17.7
BUN after 25 minutes renal ischemia, mean ([1]; 24 hours after reperfusion): 66.76
BUN after 25 minutes renal ischemia, mean ([1]; 72 hours after reperfusion): 91.18
BUN levels in dose-response experiment (in words) ([1]; lower dosages tested (0.3-30 mg/kg range), compared with peptide B): did reduce BUN levels surprisingly well at the lower dosages tested
BUN after 25 minutes renal ischemia, mean ([1]; t = 0 hr (before clamping)): 9.304
identified as useful peptide for treatment of radiation injury from cell-cycle studies in plants and in vitro proliferation studies [2]: useful
mice with sickness score 1, effect at t = 24 hours ([3]; LPS dose 10.5): 2
mice with sickness score 1, effect at t = 48 hours ([3]; LPS dose 10.5): 2
mice with sickness score 2, effect at t = 24 hours ([3]; LPS dose 10.5): 1
mice with sickness score 2, effect at t = 48 hours ([3]; LPS dose 10.5): 3
mice with sickness score 3, effect at t = 24 hours ([3]; LPS dose 10.5): 2
mice with sickness score 1, effect at t = 24 hours ([3]; LPS dose 11): 4
mice with sickness score 2, effect at t = 48 hours ([3]; LPS dose 11): 6
mice with sickness score 3, effect at t = 24 hours ([3]; LPS dose 11): 2

LAG
BUN concentration versus the PBS control group (in words) [1]: no reducing effect on BUN concentration
mortality versus the PBS control group (in words) [1]: significant reduction of mortality
mortality at 72 hours post-reperfusion [1]: 4/10
BUN after 25 minutes renal ischemia, mean ([1]; 2 hours after reperfusion): 18.13
BUN after 25 minutes renal ischemia, mean ([1]; 24 hours after reperfusion): 59.24
BUN after 25 minutes renal ischemia, mean ([1]; 72 hours after reperfusion): 74.4
BUN after 25 minutes renal ischemia, mean ([1]; t = 0 hr (before clamping)): 10.15
identified as useful peptide for treatment of radiation injury from cell-cycle studies in plants and in vitro proliferation studies [2]: useful
mice scored D (dead), effect at t = 48 hours ([3]; LPS dose 10.5): 6
mice with sickness score 5, effect at t = 24 hours ([3]; LPS dose 10.5): 5
mice scored D (dead), effect at t = 48 hours ([3]; LPS dose 11): 6
mice with sickness score 5, effect at t = 24 hours ([3]; LPS dose 11): 6
